Patent publication US10870647B2, “Imidazopyridine derivative, method for preparing same, and pharmaceutical composition containing same as active ingredient for preventing or treating cancer” (DAEGU-GYEONGBUK MEDICAL INNOVATION FOUNDATION, priority 2016, dated 2020)

Key:
Experiment in all cases: Kinase selectivity, scanMAX Kinase assay panel (DiscoverX), % control at 1 uM
Assay type in all cases: binding
[1] = biological target: T1, scanMAX Kinase assay panel (Homo sapiens, UniProt Q04771); settings: ACVR1; 1 uM; read-out: Percent Control (%)
T1 construct: purchased DiscoverX
T1 sequence (Q04771 21-509): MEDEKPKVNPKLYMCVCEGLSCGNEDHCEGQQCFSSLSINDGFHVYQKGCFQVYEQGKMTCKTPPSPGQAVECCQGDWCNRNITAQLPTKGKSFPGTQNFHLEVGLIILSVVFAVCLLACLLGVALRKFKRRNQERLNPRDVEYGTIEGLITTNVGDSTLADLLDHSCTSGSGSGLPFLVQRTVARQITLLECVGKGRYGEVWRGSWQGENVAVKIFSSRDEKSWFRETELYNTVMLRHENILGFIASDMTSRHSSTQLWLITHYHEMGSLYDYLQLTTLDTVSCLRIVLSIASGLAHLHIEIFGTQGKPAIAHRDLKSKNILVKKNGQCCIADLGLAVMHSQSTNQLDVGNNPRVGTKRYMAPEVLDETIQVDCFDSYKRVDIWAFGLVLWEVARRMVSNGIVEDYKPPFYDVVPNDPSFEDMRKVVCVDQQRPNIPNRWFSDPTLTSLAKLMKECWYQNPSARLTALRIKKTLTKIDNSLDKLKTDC
Method in brief: (§1)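 Read-out is percent of control, derived from the signal with compound relative to positive and negative controls: (compound − positive)/(negative − positive) × 100. Each enzyme received test drug at 1 uM in DMSO, and values under 35% count as active.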

[2] = biological target: T2, scanMAX Kinase assay panel (Homo sapiens, UniProt Q8WU08); settings: YANK1; 1 uM; read-out: Percent Control (%)
T2 construct: purchased DiscoverX
Method in brief: as §1

[3] = biological target: T3, scanMAX Kinase assay panel (Homo sapiens, UniProt Q9UPE1); settings: SRPK3; 1 uM; read-out: Percent Control (%)
T3 construct: purchased DiscoverX
Method in brief: as §1

[4] = biological target: T4, scanMAX Kinase assay panel (Homo sapiens, UniProt Q96SB4); settings: SRPK1; 1 uM; read-out: Percent Control (%)
T4 construct: purchased DiscoverX
Method in brief: as §1

[5] = biological target: T5, scanMAX Kinase assay panel (Homo sapiens, UniProt Q00537); settings: PCTK2; 1 uM; read-out: Percent Control (%)
T5 construct: purchased DiscoverX
Method in brief: as §1

[6] = biological target: T6, scanMAX Kinase assay panel (Homo sapiens, UniProt P08581, Y1235D); settings: MET (Y1235D); 1 uM; read-out: Percent Control (%)
T6 construct: purchased DiscoverX
Method in brief: as §1

[7] = biological target: T7, scanMAX Kinase assay panel (Homo sapiens, UniProt Q13555); settings: CAMK2G; 1 uM; read-out: Percent Control (%)
T7 construct: purchased DiscoverX
Method in brief: as §1

[8] = biological target: T8, scanMAX Kinase assay panel (Homo sapiens, UniProt P10721, D816V); settings: KIT (D816V); 1 uM; read-out: Percent Control (%)
T8 construct: purchased DiscoverX
Method in brief: as §1

[9] = biological target: T9, scanMAX Kinase assay panel (Homo sapiens, UniProt Q9UBF8); settings: PIK4CB; 1 uM; read-out: Percent Control (%)
T9 construct: purchased DiscoverX
Method in brief: as §1

T3 sequence (Q9UPE1 whole entry): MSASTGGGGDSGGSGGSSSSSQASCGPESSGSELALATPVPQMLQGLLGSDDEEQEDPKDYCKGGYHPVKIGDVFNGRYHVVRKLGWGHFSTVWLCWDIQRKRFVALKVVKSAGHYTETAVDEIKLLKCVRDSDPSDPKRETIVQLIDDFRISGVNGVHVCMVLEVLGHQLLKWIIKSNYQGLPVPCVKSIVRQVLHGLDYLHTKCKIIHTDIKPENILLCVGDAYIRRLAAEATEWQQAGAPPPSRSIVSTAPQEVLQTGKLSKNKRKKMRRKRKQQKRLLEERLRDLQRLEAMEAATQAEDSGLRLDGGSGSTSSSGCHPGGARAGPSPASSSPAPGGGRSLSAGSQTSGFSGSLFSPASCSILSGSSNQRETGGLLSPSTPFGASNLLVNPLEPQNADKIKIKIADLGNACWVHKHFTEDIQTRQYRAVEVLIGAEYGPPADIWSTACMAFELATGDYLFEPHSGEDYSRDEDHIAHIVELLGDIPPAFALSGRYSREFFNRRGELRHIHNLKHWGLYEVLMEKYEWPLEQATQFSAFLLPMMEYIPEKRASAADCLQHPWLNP
T9 sequence (Q9UBF8 whole entry): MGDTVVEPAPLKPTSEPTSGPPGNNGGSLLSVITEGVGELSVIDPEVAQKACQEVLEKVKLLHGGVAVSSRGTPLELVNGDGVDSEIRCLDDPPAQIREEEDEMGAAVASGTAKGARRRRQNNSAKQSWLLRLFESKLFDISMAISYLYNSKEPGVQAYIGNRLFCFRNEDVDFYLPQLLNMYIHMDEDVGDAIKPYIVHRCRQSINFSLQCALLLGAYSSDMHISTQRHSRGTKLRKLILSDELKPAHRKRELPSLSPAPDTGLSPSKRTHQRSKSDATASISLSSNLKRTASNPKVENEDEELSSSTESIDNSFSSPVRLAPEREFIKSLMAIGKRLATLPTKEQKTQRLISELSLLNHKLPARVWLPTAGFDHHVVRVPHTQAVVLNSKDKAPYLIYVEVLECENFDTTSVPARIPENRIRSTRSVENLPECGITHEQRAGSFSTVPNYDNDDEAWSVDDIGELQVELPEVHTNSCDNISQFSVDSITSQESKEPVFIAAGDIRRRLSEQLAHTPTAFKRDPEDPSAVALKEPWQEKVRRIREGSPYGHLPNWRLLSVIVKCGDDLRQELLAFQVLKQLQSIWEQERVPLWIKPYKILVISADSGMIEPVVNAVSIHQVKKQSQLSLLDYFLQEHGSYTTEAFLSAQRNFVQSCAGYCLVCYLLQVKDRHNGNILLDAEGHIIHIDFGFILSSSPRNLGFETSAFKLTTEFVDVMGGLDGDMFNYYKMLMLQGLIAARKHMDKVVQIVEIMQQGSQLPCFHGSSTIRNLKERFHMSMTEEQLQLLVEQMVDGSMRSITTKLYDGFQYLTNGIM
T5 sequence (Q00537 whole entry): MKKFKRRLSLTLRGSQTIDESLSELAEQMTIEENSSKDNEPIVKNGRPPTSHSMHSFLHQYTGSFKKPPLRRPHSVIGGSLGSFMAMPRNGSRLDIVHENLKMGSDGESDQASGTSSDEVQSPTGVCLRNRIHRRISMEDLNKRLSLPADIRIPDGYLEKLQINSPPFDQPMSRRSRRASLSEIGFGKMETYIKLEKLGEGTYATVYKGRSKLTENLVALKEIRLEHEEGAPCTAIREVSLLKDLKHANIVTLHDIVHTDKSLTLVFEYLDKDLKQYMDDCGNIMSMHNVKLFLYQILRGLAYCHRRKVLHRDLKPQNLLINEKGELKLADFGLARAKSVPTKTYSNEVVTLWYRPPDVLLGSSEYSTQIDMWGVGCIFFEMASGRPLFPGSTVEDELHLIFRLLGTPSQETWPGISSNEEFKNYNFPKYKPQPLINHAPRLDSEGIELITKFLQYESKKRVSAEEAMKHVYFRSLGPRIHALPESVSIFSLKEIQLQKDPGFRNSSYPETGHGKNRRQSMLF
T6 sequence (P08581 25-1390 Y1235D): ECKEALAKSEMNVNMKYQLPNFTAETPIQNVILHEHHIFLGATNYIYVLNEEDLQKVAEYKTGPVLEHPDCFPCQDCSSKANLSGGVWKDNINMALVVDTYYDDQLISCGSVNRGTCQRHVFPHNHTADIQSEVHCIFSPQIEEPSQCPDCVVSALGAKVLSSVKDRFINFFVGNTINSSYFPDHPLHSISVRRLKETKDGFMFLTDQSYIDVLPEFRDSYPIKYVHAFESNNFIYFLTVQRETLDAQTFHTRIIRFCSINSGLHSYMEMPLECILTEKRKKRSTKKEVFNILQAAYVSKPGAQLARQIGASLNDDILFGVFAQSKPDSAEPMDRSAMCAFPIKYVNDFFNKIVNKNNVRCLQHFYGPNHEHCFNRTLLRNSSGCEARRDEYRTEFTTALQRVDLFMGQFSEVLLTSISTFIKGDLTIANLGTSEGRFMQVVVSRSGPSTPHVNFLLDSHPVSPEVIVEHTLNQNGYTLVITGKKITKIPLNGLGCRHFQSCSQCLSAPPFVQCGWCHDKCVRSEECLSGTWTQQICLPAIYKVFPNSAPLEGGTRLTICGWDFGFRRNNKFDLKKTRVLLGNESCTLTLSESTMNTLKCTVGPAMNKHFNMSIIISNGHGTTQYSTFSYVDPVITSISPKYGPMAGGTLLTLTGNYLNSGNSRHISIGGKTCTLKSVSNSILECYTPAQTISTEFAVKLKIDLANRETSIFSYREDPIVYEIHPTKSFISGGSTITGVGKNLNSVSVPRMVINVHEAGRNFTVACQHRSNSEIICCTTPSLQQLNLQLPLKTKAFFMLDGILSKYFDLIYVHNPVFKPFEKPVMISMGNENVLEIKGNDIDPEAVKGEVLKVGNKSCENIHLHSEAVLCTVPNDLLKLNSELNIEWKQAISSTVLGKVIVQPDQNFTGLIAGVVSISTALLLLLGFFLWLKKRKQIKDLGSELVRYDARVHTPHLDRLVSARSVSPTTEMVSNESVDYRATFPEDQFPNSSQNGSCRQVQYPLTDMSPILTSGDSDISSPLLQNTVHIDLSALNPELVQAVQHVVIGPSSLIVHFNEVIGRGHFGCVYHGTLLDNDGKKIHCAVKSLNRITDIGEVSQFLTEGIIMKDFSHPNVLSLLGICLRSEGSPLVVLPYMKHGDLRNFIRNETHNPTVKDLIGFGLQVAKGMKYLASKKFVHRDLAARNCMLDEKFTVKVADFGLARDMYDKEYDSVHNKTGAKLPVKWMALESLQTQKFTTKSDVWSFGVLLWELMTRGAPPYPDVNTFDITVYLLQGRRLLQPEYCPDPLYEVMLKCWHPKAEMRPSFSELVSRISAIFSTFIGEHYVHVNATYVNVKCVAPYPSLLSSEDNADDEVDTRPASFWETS
T8 sequence (P10721 26-976 D816V): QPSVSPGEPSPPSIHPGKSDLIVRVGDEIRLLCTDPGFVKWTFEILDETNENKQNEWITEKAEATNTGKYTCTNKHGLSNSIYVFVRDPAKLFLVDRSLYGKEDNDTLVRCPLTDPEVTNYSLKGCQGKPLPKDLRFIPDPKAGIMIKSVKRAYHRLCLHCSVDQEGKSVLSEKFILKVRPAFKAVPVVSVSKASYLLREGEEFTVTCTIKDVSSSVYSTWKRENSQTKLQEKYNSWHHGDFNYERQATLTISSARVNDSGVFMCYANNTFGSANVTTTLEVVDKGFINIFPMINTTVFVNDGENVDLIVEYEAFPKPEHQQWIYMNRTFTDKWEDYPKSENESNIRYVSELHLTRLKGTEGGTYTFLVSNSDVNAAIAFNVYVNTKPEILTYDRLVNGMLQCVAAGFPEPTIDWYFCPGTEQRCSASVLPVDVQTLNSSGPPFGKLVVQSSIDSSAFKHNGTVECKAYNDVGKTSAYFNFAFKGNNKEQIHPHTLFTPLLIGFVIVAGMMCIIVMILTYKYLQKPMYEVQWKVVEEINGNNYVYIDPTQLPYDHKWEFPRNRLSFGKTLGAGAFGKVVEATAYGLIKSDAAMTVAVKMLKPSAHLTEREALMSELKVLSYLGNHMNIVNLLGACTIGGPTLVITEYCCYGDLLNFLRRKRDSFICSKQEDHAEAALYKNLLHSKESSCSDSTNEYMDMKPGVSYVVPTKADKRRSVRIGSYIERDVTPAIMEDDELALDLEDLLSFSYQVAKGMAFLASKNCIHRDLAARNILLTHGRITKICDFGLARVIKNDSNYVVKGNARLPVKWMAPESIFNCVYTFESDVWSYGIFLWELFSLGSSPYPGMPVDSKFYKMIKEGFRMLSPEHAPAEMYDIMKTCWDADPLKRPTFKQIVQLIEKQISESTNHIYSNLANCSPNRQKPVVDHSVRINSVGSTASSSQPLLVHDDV
T4 sequence (Q96SB4 whole entry): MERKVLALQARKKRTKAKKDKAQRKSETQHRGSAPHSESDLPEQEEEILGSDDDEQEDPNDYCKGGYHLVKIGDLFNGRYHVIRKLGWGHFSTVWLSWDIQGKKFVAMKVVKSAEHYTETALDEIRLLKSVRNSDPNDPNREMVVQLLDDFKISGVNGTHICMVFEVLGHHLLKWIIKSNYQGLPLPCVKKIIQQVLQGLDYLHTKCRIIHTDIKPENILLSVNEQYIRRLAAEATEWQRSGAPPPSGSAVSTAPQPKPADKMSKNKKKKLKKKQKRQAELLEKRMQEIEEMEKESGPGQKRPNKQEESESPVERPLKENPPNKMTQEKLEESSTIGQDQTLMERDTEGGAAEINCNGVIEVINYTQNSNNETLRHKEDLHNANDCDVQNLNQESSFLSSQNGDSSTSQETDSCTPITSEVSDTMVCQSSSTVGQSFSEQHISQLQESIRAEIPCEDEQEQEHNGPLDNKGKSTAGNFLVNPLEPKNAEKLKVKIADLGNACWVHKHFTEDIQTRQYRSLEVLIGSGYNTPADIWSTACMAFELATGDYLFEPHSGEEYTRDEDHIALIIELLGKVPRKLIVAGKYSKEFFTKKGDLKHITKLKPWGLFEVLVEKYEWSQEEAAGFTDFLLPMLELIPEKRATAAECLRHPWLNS

Compound	remaining binding at 1 µM [1]	remaining binding at 1 µM [2]	remaining binding at 1 µM [3]	remaining binding at 1 µM [4]	remaining binding at 1 µM [5]	remaining binding at 1 µM [6]	remaining binding at 1 µM [7]	remaining binding at 1 µM [8]	remaining binding at 1 µM [9]
Cc1ccc(C(=O)Nc2ccc(CN3CCN(C)CC3)c(C(F)(F)F)c2)cc1C#Cc1cnc2c(Nc3cnn(C)c3)cccn12 [Example 1, 4-methyl-3-((8-((1-methyl-1H-pyrazol-4-yl)amino)imidazo[1,2-a]pyridin-3-yl)ethynyl)-N-(4-((4-methylpiperazin-1-yl)methyl)-3-(trifluoromethyl)phenyl)benzamide]	100%	69%	82%	3%	19%	61%	73%	3%	88%
Cc1cn(-c2cc(NC(=O)c3ccc(C)c(C#Cc4cnc5c(Nc6cnn(C)c6)cccn45)c3)cc(C(F)(F)F)c2)cn1 [Example 12, 4-methyl-N-(3-(4-methyl-1H-imidazol-1-yl)-5-(trifluoromethyl)phenyl)-3-((8-((1-methyl-1H-pyrazol-4-yl)amino)imidazo[1,2-a]pyridin-3-yl)ethynyl)benzamide]	100%	98%	100%	69%	98%	59%	80%	7%	100%
Cc1ccc(NC(=O)C2(C(=O)Nc3ccc(F)cc3)CC2)cc1C#Cc1cnc2c(Nc3cnn(C(C)C)c3)cccn12 [Example 78]	100%	84%	100%	97%	100%	82%	100%	61%	99%
